# Assay results taken from patent US20250082656A1, “DOSAGE REGIMENS FOR TREATMENT OF DENGUE INFECTION” (Atea Pharmaceuticals, Inc., priority 2022, published 2025).
# Read-outs that look alike come from different tables or passages of the source.
# Key:
# [1] = Plasma PK after single oral dose of AT-752, mice; conditions: Mouse, single oral AT-752 420 mg/kg
# [2] = steady-state, human plasma; for AUCtau / Cmax: mean±SD; for Tmax: median (minimum-maximum)
# [3] = Plasma PK after single oral dose of AT-752, rats; assay type: in vivo, SD rats; conditions: Rat, single oral AT-752 300 mg/kg, plasma
# Experimental: (§1) Male SD rats were administered 300 mg/kg Compound 2 (AT-752). Blood samples were collected up to 24 hrs. post dose, plasma separated and analyzed for Compound 1 (AT-281), Compound 3 (AT-551), and Compound 6 (AT-273) by LC-MS/MS. Data are express as mean+/−SD (n=3-5/time point). The x-axis is time post the dose measured in hours and the y-axis is the plasma concentration of the metabolites measured in nanomoles/mL). The experimental procedure is provided in Example 14.
# Male naïve SD rats (Beijing Vital River Laboratory Animals Co. Ltd., China) were administered a dose of AT-752 at 300 mg/kg in 40% PEG400, 10% solutol HS15, 50% 100 mM citrate buffer, pH 4.5 (v/v) by oral gavage. Blood samples (n=4) were collected at 1, 2, 4, 8, 12 and 24 h post-dose, plasma separated and stored at −70° C. […] For PBMCs, nine male naïve SD rats were administered a dose of Compound 2 (AT-752) (at a Compound 1 (AT-281) equivalent dose of 300 mg/kg) by oral gavage.
# (§2) Pharmacokinetic measurements for FIGS. 11, 12, 13, 14, and 15 were analyzed using LC-MS/MS according to the protocol described herein. Plasma samples were prepared for MS analysis by adding internal standards and extracting with 20 volumes chilled ACN. After vortex (800 rpm for 10 min) and centrifugation (4,000 rpm, 15 min, 4° C.), the supernatants (25 μL) were diluted with an equal volume of H2O, mixed and spun again. After adding internal standards, the PBMC samples (10^6 cells) were lyzed with 300 μL MeOH/H2O (70:30, v/v) and 40 mM dibutylammonium acetate (DBAA), mixed by vortex and centrifuged (12,000 rpm, 15 min, 4° C.). Aliquots of the supernatants (35 μL) were dried under nitrogen and reconstituted in H2O, then mixed and spun again. […] A binary nonlinear gradient with mobile phases A (0.1% formic acid in water) and B (0.1% formic acid in ACN) were used to elute samples at 0.8 mL/min, with a run time of 5 min. […] A binary nonlinear gradient with mobile phases A (0.001% NHr H2O, 0.18 mM DBAA in H2O) and B (10 mM N,N-dimethyl-hexylamine, 3 mM NH4OAc in ACN/H2O (50.50, v/v)) were used to elute samples at 0.5 mL/min, with a run time of 3 min. Standards in 50% MeOH were used for calibration. […] Internal standards (ISS) as described previously (Good et al., Preclinical evaluation of AT-527, a novel guanosine nucleotide prodrug with potent, pan-genotypic activity against hepatitis C virus. PLos One 15:e02271045) were used to correct for variations in recovery.
# (§3) Data analysis of the pharmacokinetic data generated according to Example 21 and presented in FIGS. 11, 12, 13, 14, and 15 was analyzed according to the procedure described herein. Plasma concentrations of Compound 1 (AT-281), Compound 3 (AT-551) and Compound 6 (AT-273) were subjected to non-compartmental pharmacokinetic analysis using Phoenix WinNonlin software (version 6.3 or above, Pharsight, Mountain View, CA). The linear/log trapezoidal rule was applied in obtaining the PK parameters.
# [4] = Plasma PK after single oral dose of AT-752, monkeys; assay type: in vivo, cynomolgus monkeys; conditions: Monkey, single oral AT-752 300 mg/kg, plasma
# Experimental: as §1, with “cynomolgus monkeys” for “SD rats”
# Male non-naïve cynomolgus monkeys (Hainan Jingang Laboratory Animal Co. Ltd., China), at least 2 kg body weight, were individually housed during the study in stainless steel mesh cages, provided ad libitum access to RO water, fed twice daily (except on the day of dosing when they were fed once) with ˜60 g Certified Monkey Diet each feed (Beijing Vital Keao Feed Co., Ltd., Beijing, China) and given daily treats of fresh fruit. They (n=5) were administered a dose of Compound 2 (AT-752) at 300 mg/kg in 40% PEG400, 10% solutol HS15, 50% 100 mM citrate buffer, pH 4.5 (v/v) by oral gavage, and blood samples (˜0.5 mL) were collected at 1, 2, 4, 8, 12 and 24 h post dose. Plasma was separated at each time point for pharmacokinetics, and stored at −70° C. […] Separately, three monkeys were given an oral dose of Compound 2 (AT-752) as powder in capsules at 60 mg/kg ([…] (AT-281) equivalent dose of 55 mg/kg), and blood samples collected at 12, 24 and 48 h post dose.
# as §2, §3
# [5] = Pharmacokinetic study in SAD cohorts; assay type: in vivo, human; conditions: for dose proportionality of plasma exposure: dose range 250 to 1500 mg; for Urine Elimination: following single oral administration of Compound 2 at 250 to 1500 mg; for AUCInf / Cmax / T1/2 / Tmax: human plasma; for CLR: human
# Experimental: as §2, §3
# [6] = single oral Compound 2 250 mg, fasting
# [7] = single oral Compound 2 500 mg, fasting
# [8] = single oral Compound 2 500 mg, fed
# [9] = single oral Compound 2 500 mg, fed (high-fat/high-calorie meal)
# [10] = single oral Compound 2 1000 mg, South/Southeast/East Asian origin
# [11] = single oral Compound 2 1000 mg, fasting
# [12] = single oral Compound 2 1000 mg, patients of South/Southeast/East Asian origin
# [13] = single oral Compound 2 1500 mg, fasting
compound,measurement,setting,value
CNc1nc(N)nc2c1ncn2C1OC(COP(=O)(O)NC(C)C(=O)O)C(O)C1(C)F (stereo not drawn) [Compound 3],AUC0-24 h,[1],58.7 ± 13.3 µM·h
same,Cmax,[1],45.1 ± 12 µM
same,Tmax,[1],0.5 ± 0.0 h
same,AUCtau,[2]; Compound 2 750 mg BID,1330 ± 503 ng·h/mL
same,Cmax,[2]; Compound 2 750 mg BID,365 ± 159 ng/mL
same,Tmax,[2]; Compound 2 750 mg BID,1.0 (0.8-2.0) h
same,AUCtau,[2]; Compound 2 750 mg TID,944 ± 173 ng·h/mL
same,Cmax,[2]; Compound 2 750 mg TID,245 ± 30 ng/mL
same,Tmax,[2]; Compound 2 750 mg TID,1.5 (0.8-2.0) h
same,AUCtau,[2]; Compound 2 1000 mg QD,1650 ± 498 ng·h/mL
same,Cmax,[2]; Compound 2 1000 mg QD,392 ± 143 ng/mL
same,Tmax,[2]; Compound 2 1000 mg QD,1.0 (0.8-2.0) h
same,AUC0-24 h,[3],56.5 µM·h
same,Cmax,[3],16.5 ± 10.8 µM
same,AUC0-24 h,[4],9.7 ± 2.2 µM·h
same,Cmax,[4],2 ± 0.8 µM
same,Tmax,[4],2.0 ± 0.0 h
same,dose proportionality of plasma exposure,[5],greater than dose-proportional manner
same,Urine Elimination,[5],< 1%
same,AUCInf,[5]; [6],302 ± 71 ng·h/mL
same,Cmax,[5]; [6],89 ± 36 ng/mL
same,T1/2,[5]; [6],2.1 ± 0.3 h
same,Tmax,[5]; [6],1.0 (0.8-2.0) h
same,AUCInf,[5]; [7],898 ± 437 ng·h/mL
same,Cmax,[5]; [7],231 ± 155 ng/mL
same,T1/2,[5]; [7],2.4 ± 0.5 h
same,Tmax,[5]; [7],1.0 (0.8-8.0) h
same,AUCInf,[5]; [8],737 ± 289 ng·h/mL
same,T1/2,[5]; [8],2.3 ± 0.4 h
same,Tmax,[5]; [8],3.1 (3.0-4.0) h
same,Cmax,[5]; [9],154 ± 84 ng/mL
same,AUCInf,[5]; [10],3320 ± 1630 ng·h/mL
same,T1/2,[5]; [10],2.0 ± 0.3 h
same,Tmax,[5]; [10],0.9 (0.5-2.0) h
same,AUCInf,[5]; [11],2330 ± 1060 ng·h/mL
same,Cmax,[5]; [11],695 ± 468 ng/mL
same,T1/2,[5]; [11],2.2 ± 0.4 h
same,Tmax,[5]; [11],0.8 (0.5-2.0) h
same,Cmax,[5]; [12],895 ± 418 ng/mL
same,AUCInf,[5]; [13],4100 ± 494 ng·h/mL
same,Cmax,[5]; [13],1080 ± 217 ng/mL
same,T1/2,[5]; [13],3.2 ± 1.2 h
same,Tmax,[5]; [13],1.5 (0.8-2.0) h
same,CLR,[5]; [6],2.0 ± 0.3 L/h
same,CLR,[5]; [7],2.1 ± 0.6 L/h
same,CLR,[5]; [8],2.1 ± 0.4 L/h
same,CLR,[5]; [10],2.1 ± 0.6 L/h
same,CLR,[5]; [11],2.1 ± 0.6 L/h
same,CLR,[5]; [13],1.9 ± 0.4 L/h
CNc1nc(N)nc2c1ncn2[C@@H]1O[C@H](CO)[C@@H](O)[C@@]1(C)F [Compound 7],AUCtau,[2]; Compound 2 750 mg BID,7960 ± 2970 ng·h/mL
same,Cmax,[2]; Compound 2 750 mg BID,1470 ± 404 ng/mL
same,Tmax,[2]; Compound 2 750 mg BID,1.5 (0.8-2.2) h
same,AUCtau,[2]; Compound 2 750 mg TID,22300 ± 14100 ng·h/mL
same,Cmax,[2]; Compound 2 750 mg TID,1600 ± 640 ng/mL
same,Tmax,[2]; Compound 2 750 mg TID,1.5 (1.0-2.0) h
same,AUCtau,[2]; Compound 2 1000 mg QD,8290 ± 2290 ng·h/mL
same,Cmax,[2]; Compound 2 1000 mg QD,1200 ± 284 ng/mL
same,Tmax,[2]; Compound 2 1000 mg QD,0.9 (0.8-2.0) h
same,dose proportionality of plasma exposure,[5],dose-proportional manner
same,Urine Elimination,[5],10.7-17.9%
same,AUCInf,[5]; [6],2890 ± 680 ng·h/mL
same,Cmax,[5]; [6],446 ± 121 ng/mL
same,T1/2,[5]; [6],16.9 ± 8.6 h
same,Tmax,[5]; [6],2.1 (2.0-3.0) h
same,AUCInf,[5]; [7],5480 ± 1630 ng·h/mL
same,Cmax,[5]; [7],765 ± 307 ng/mL
same,T1/2,[5]; [7],15.1 ± 6.2 h
same,Tmax,[5]; [7],1.0 (0.8-4.0) h
same,AUCInf,[5]; [8],4310 ± 1400 ng·h/mL
same,T1/2,[5]; [8],11.2 ± 4.9 h
same,Tmax,[5]; [8],4.0 (3.0-6.1) h
same,Cmax,[5]; [9],488 ± 324 ng/mL
same,AUCInf,[5]; [10],14000 ± 4210 ng·h/mL
same,T1/2,[5]; [10],14.7 ± 10.1 h
same,Tmax,[5]; [10],1.5 (0.8-2.0) h
same,AUCInf,[5]; [11],10300 ± 3070 ng·h/mL
same,Cmax,[5]; [11],1640 ± 474 ng/mL
same,T1/2,[5]; [11],12.4 ± 10.7 h
same,Tmax,[5]; [11],0.9 (0.8-3.0) h
same,Cmax,[5]; [12],2010 ± 489 ng/mL
same,AUCInf,[5]; [13],16700 ± 3780 ng·h/mL
same,Cmax,[5]; [13],2030 ± 600 ng/mL
same,T1/2,[5]; [13],12.5 ± 3.8 h
same,Tmax,[5]; [13],2.0 (1.0-2.0) h
same,CLR,[5]; [6],13.7 ± 1.6 L/h
same,CLR,[5]; [7],13.6 ± 5.4 L/h
same,CLR,[5]; [8],12.5 ± 2.8 L/h
same,CLR,[5]; [10],13.4 ± 2.5 L/h
same,CLR,[5]; [11],14.2 ± 3.8 L/h
same,CLR,[5]; [13],15.0 ± 2.4 L/h
